Data taken from ChEMBL document CHEMBL5335775, “Bioisosteric replacement of 1H-1,2,3-triazole with 1H-tetrazole ring enhances anti-leukemic activity of (5-benzylthiazol-2-yl)benzamides” (Eur J Med Chem, 2023).
Active and inactive are the calls of the source. The rule behind the calls is not given here.

What was measured:
K562 [1] = assay: Anticancer activity against human K562 cells assessed as cell growth at 10^-5 M incubated for 48 hrs by SRB assay relative to control; assay type: functional; conditions: K562, 48 h, dose 1 10^-5M, read-out: Activity
K562 [2] = assay: Induction of pro-apoptotic morphological changes in human K562 cells assessed as nucleus fragmentation at 700 nM incubated for 24 hrs by Hoescht-33342 staining based analysis; assay type: functional, cell-based
K562 [3] = assay: Antiproliferative activity against human K562 cells assessed as inhibition of cell proliferation measured after 72 hrs by MTT assay; assay type: functional, cell-based; conditions: K562, 72 h
SF-295 = assay: Anticancer activity against human SF-295 cells assessed as cell growth at 10^-5 M incubated for 48 hrs by SRB assay relative to control; assay type: functional; conditions: SF-295, 48 h, dose 1 10^-5M, read-out: Activity
NCI-H522 = assay: Anticancer activity against human NCI-H522 cells assessed as cell growth at 10^-5 M incubated for 48 hrs by SRB assay relative to control; assay type: functional; conditions: NCI-H522, 48 h, dose 1 10^-5M, read-out: Activity
[4] = Antiproliferative activity against human HaCaT cells assessed as inhibition of cell proliferation measured after 72 hrs by MTT assay; assay type: toxicity, cell-based
K562 [5] = assay: Induction of DNA damage in human K562 cells assessed as fold increase in tail DNA level at 70 to 700 nM incubated for 24 hrs by comet assay relative to control; assay type: functional; conditions: dose 70-700 nM
K562 [6] = assay: Induction of pro-apoptotic morphological changes in human K562 cells assessed as formation of cytoplasmic blebs at 700 nM incubated for 24 hrs by Hoescht-33342 staining based analysis; assay type: functional, cell-based
M14 [7] = assay: Anticancer activity against human M14 cells assessed as cell growth at 10^-5 M incubated for 48 hrs by SRB assay relative to control; assay type: functional; conditions: M14, 48 h, dose 1 10^-5M, read-out: Activity
K562 [8] = assay: Induction of pro-apoptotic morphological changes in human K562 cells at 70 nM incubated for 24 hrs by Hoescht-33342 staining based analysis; assay type: functional, cell-based
K562 [9] = assay: Induction of DNA damage in human K562 cells assessed as tail DNA level at 700 nM incubated for 24 hrs by comet assay (reference value: 0.5 to 0.6 %); assay type: functional
K562 [10] = assay: Induction of DNA damage in human K562 cells assessed as tail DNA level at 70 nM incubated for 24 hrs by comet assay (reference value: 0.5 to 0.6 %); assay type: functional
HCT-15 = assay: Inhibition of cell growth in human HCT-15 cells incubated for 48 hrs by SRB assay; assay type: functional, cell-based; conditions: HCT-15, 48 h
K562 [11] = assay: Induction of DNA damage in human K562 cells assessed as fold increase in olive tail moment at 70 to 700 nM incubated for 24 hrs by comet assay relative to control; assay type: functional; conditions: dose 70-700 nM
K562 [12] = assay: Induction of DNA damage in human K562 cells assessed as olive tail moment level at 700 nM incubated for 24 hrs by comet assay (reference value: 0.2); assay type: functional
M14 [13] = assay: Inhibition of cell growth in human M14 cells incubated for 48 hrs by SRB assay; assay type: functional, cell-based; conditions: M14, 48 h
SW-620 = assay: Inhibition of cell growth in human SW-620 cells incubated for 48 hrs by SRB assay; assay type: functional, cell-based; conditions: SW-620, 48 h
UACC-257 = assay: Anticancer activity against human UACC-257 cells assessed as cell growth at 10^-5 M incubated for 48 hrs by SRB assay relative to control; assay type: functional; conditions: UACC-257, 48 h, dose 1 10^-5M, read-out: Activity
K562 [14] = assay: Induction of pro-apoptotic morphological changes in human K562 cells assessed as formation of apoptotic bodies at 700 nM incubated for 24 hrs by Hoescht-33342 staining based analysis; assay type: functional, cell-based
UACC-62 [15] = assay: Anticancer activity against human UACC-62 cells assessed as cell growth at 10^-5 M incubated for 48 hrs by SRB assay relative to control; assay type: functional; conditions: UACC-62, 48 h, dose 1 10^-5M, read-out: Activity
[16] = Antiproliferative activity against NIH3T3 cells assessed as inhibition of cell proliferation measured after 72 hrs by MTT assay; assay type: toxicity, cell-based; conditions: mouse
K562 [17] = assay: Induction of pro-apoptotic morphological changes in human K562 cells assessed as cell shrinkage at 700 nM incubated for 24 hrs by Hoescht-33342 staining based analysis; assay type: functional
[18] = Antiproliferative activity against J774.2 cells assessed as inhibition of cell proliferation measured after 72 hrs by MTT assay; assay type: toxicity, cell-based; conditions: mouse
SK-MEL-5 = assay: Anticancer activity against human SK-MEL-5 cells assessed as cell growth at 10^-5 M incubated for 48 hrs by SRB assay relative to control; assay type: functional; conditions: SK-MEL-5, 48 h, dose 1 10^-5M, read-out: Activity
K562 [19] = assay: Inhibition of cell growth in human K562 cells incubated for 48 hrs by SRB assay; assay type: functional, cell-based; conditions: K562, 48 h
T47D [20] = assay: Anticancer activity against human T47D cells assessed as cell growth at 10^-5 M incubated for 48 hrs by SRB assay relative to control; assay type: functional; conditions: dose 1 10^-5M, read-out: Activity
CAKI-1 = assay: Inhibition of cell growth in human CAKI-1 cells incubated for 48 hrs by SRB assay; assay type: functional, cell-based; conditions: CAKI-1, 48 h
T47D [21] = assay: Inhibition of cell growth in human T47D cells incubated for 48 hrs by SRB assay; assay type: functional, cell-based
NCI-H460 [22] = assay: Inhibition of cell growth in human NCI-H460 cells incubated for 48 hrs by SRB assay; assay type: functional, cell-based; conditions: NCI-H460, 48 h
LOX IMVI [23] = assay: Inhibition of cell growth in human LOX IMVI cells incubated for 48 hrs by SRB assay; assay type: functional, cell-based
[24] = Selectivity index, ratio of IC50 for […] to IC50 for human K562 cells; assay type: functional
NCI-H460 [25] = assay: Anticancer activity against human NCI-H460 cells assessed as cell growth at 10^-5 M incubated for 48 hrs by SRB assay relative to control; assay type: functional; conditions: NCI-H460, 48 h, dose 1 10^-5M, read-out: Activity
KM12 = assay: Inhibition of cell growth in human KM12 cells incubated for 48 hrs by SRB assay; assay type: functional, cell-based; conditions: KM12, 48 h
MCF7 = assay: Anticancer activity against human MCF7 cells assessed as cell growth at 10^-5 M incubated for 48 hrs by SRB assay relative to control; assay type: functional; conditions: MCF7, 48 h, dose 1 10^-5M, read-out: Activity
K562 [26] = assay: Induction of DNA damage in human K562 cells assessed as olive tail moment level at 70 nM incubated for 24 hrs by comet assay (reference value: 0.2); assay type: functional
LOX IMVI [27] = assay: Anticancer activity against human LOX IMVI cells assessed as cell growth at 10^-5 M incubated for 48 hrs by SRB assay relative to control; assay type: functional; conditions: dose 1 10^-5M, read-out: Activity
UACC-62 [28] = assay: Inhibition of cell growth in human UACC-62 cells incubated for 48 hrs by SRB assay; assay type: functional, cell-based; conditions: UACC-62, 48 h

IC50 (K562 [3]): 0.7 µM
IC50 (HCT-15): 0.347 µM
IC50 (SW-620): 0.118 µM
IC50 (K562 [19]): 0.0564 µM
IC50 (T47D [21]): 0.896 µM
IC50 (NCI-H460 [22]): 0.993 µM
SMILES: O=C(Nc1ncc(Cc2ccc(F)cc2)s1)c1ccc(-n2cnnn2)cc1
growth at 10 µM (K562 [1]): 23.2%
Activity (K562 [2]): Active
growth at 10 µM (SF-295): 25.9%
growth at 10 µM (NCI-H522): 36.5%
IC50 at 72 h [4]: > 100 µM
fold change (FC) (K562 [5]): 2
Activity (K562 [6]): Active
growth at 10 µM (M14 [7]): 34.3%
Activity (K562 [8]): inactive
Activity (K562 [9]): 5.1%
Activity (K562 [10]): 1.1%
fold change (FC) (K562 [11]): 2
Activity (K562 [12]): 1.4
IC50 (M14 [13]): 0.261 µM
growth at 10 µM (UACC-257): 32%
Activity (K562 [14]): Active
growth at 10 µM (UACC-62 [15]): 19.2%
IC50 at 72 h [16]: > 100 µM
Activity (K562 [17]): Active
IC50 at 72 h [18]: 70.7 µM
growth at 10 µM (SK-MEL-5): 10.6%
growth at 10 µM (T47D [20]): 23.2%
IC50 (CAKI-1): 0.772 µM
IC50 (LOX IMVI [23]): 0.206 µM
Ratio IC50 [24]: 101
growth at 10 µM (NCI-H460 [25]): 25.5%
IC50 (KM12): 0.927 µM
growth at 10 µM (MCF7): 34.4%
Activity (K562 [26]): 0.5
growth at 10 µM (LOX IMVI [27]): 26.3%
IC50 (UACC-62 [28]): 0.0569 µM
